Data: patent US20240117303A1, “METHODS AND COMPOSITIONS FOR GENERATING HUMAN MIDBRAIN DOPAMINERGIC NEURONS FROM NEURAL PROGENITOR CELLS” (Trailhead Biosystems Inc., priority 2022, published 2024)
Entries after “also recorded” stand apart in the source; their conditions may differ.

What was measured:
[1] = system: human pluripotent stem cells; assay: HD-DoE 13-factor experiment for stage 1 recipe, gene expression modeled after 3-day treatment; dynamic profile and factor criticality analysis; type: cell-based; details: for impact on expression of FOXA2 / impact on expression of OTX2: 13 effectors; for expression level of LMX1A in absence of the factor / expression level of FOXA2 in absence of the factor / expression level of DMBX1 in absence of the factor / expression level of OTX2 in absence of the factor: stage 1 recipe, other four factors present; for expression level of LMX1A in absence of the factor: 300 with all five factors; for expression level of FOXA2 in absence of the factor: 600 with all five factors; for expression level of DMBX1 in absence of the factor: 3000 with all five factors; for expression level of OTX2 in absence of the factor: 12000 with all five factors
Text: This example utilizes a method of High-Dimensional Design of Experiments (HD-DoE), as previously described in Bukys et al. (2020) Iscience 23:101346. The method employs computerized design geometries to simultaneously test multiple process inputs and offers mathematical modeling of a deep effector/response space. The method allows for finding combinatorial signaling inputs that control a complex process, such as during cell differentiation. It allows testing of multiple plausible critical process parameters, as such parameters impact output responses, such as gene expression. Because gene expression provides hallmark features of the phenotype of, for example, a human cell, the method can be applied to identify, and understand, which signaling pathways control cell fate. In the current example, the HD-DOE method was applied with the intent to find conditions for induction of midbrain neural progenitor-expressed genes, directly from the pluripotent stem cell state.
To develop the recipe for each stage, the impact of agonists and antagonists of multiple signaling pathways (referred to herein as “effectors”) on the expression of two sets of 53 pre-selected genes after a 3-day treatment was tested and modeled. These effectors are small molecules or proteins that are commonly used during stepwise differentiation of stem cells to specific fates. The choice of the effectors to test was based on current literature on neural induction in the midbrain region of the developing brain and differentiation of stem cells to neural progenitors.
To test the effectors, experiments with at least 8 factors were designed that can assess the response of cells to 48 or more different combinations of effectors in a range of concentrations. To analyze the models, we focused on expression of genes expressed in the midbrain region, including OTX2, DMBX1, FOXA2, LMX1A, and on the absence of GBX2, which is a hindbrain marker. The impact of each effector on gene expression level is defined by a parameter called factor contribution that is calculated for each effector during the modeling.
To identify the recipe of stage 1 of differentiation, cells were treated with various effectors for 3 days and the gene expression of cells was modeled. […] This model consisted of 13 factors including LDN193189, PD173074, BLU9931, Purmorphamine, SC79, MK2206, ZM336372, PD0325901, CHIR99021, XAV939, UCLA-gp130, Tofacitinib and GO 6983.
(§1) To assess the impact of elimination of each validated factor, we used dynamic profile analysis and compared the expression level of genes of interest in absence of each finalized factor while others are present.
In the stage 1 recipe, each of the five finalized factors were removed while the other four factors were present and the expression levels of OTX2, DMBX1, FOXA2 and LMX1A was assessed compared to the levels in the presence of all five factors (FIG. 11A-B). […] Expression level of DMBX1 increased in absence of LDN193189, however values of OTX2, FOXA2 and LMX1A decreased.

[2] = system: stage 2 neural progenitors; assay: HD-DoE 12-factor model for stage 3 recipe (FIG. 19-23, 29); type: cell-based, human
Text: To develop the neuronal differentiation recipes, the impact of various agonist and antagonists (effectors) on maturation of MB neural progenitors was investigated using the HD-DoE method described in Example 1. These effectors were chosen based on available literature on developmental biology, differentiation of stem cells as well as mouse and human single cell RNA-seq data from midbrain neurons at the time.
To engineer the recipe of stage 3 of differentiation, cells were first cultured in the stage 1 and stage 2 media as described herein, then they were treated with combinations of 8 or 12 factors for 3 days and the gene expression of cells in each condition was modeled. To guide the cells towards a subtype of midbrain dopaminergic neurons that reside in Substantia Nigra pars compacta (SNc) region of the brain, neural progenitors need to be SOX6^+ (Pereira et al. (2021) Cell Rep. 37:109975 Oosterveen et al. (2021) Stem Cell Reports 16:2718-2735 Poulin et al. (2020) Trends Neurosci. 43:155-169). CORIN, NGN2 and MSX1 are other markers involved in neurogenesis of dopaminergic neurons originating from floorplate region of developing midbrain (Wang et al. (2020) Cells 9:1489; Samata et al. (2016) Nat Commun. 7:13097; Ono et al. (2007) Development 134:3213-3225; Prakash et al. (2006) J. Physiol. 575:403410).
Therefore, we focused on maximizing expression of SOX6, CORIN, NGN2 and MSX1 in modeling experiments. One of the 12-factor models, the results of which are shown in FIG. 19, including LDN193189, AGN193109, BMP7, TTNPB, PD0325901, A8301, MHY1485, CHIR99021, XAV939, SANT-1, Purmorphamine and MK2206, provided a combination set that could maximize expression level of CORIN to more than 2000.
To assess the impact of elimination of each validated factor identified in Example 5 for the stage 3 and stage 4 recipes, we used dynamic profile analysis and compared the expression level of genes of interest in absence of each finalized factor while others are present.
In the stage 3 recipe, each of the finalized factors were removed in their respective models while other factors were present and the expression level of genes of interest was assessed compared to presence of all factors. When AGN193109 was excluded, level of all CORIN, KCNJ6, MSX1 and SOX6 decreased from 900 to 450, 50 to 35, 140 to 110 and 105 to 60, respectively. […] When PD0325901 was removed, expression levels of CORIN and KCNJ6 increased to 1200 and 70 while levels of MSX1 and SOX6 decreased to 105 and 20. In the absence of CHIR99021, the expression level of CORIN was again increased to 1200 while the level of KCNJ6 and MSX1 dropped to 50 and 115. […] Therefore, it was decided to include this compound in the final recipe. […] Therefore, CHIR99021 was also included in the final recipe.

[3] = system: stage 1 neural stem cells; assay: HD-DoE 12-factor experiment for stage 2 recipe (first model, FIG. 5-7, 12); type: cell-based, human; details: for impact on expression of FOXA2 / impact on expression of LMX1A: dynamic profile / model, 12 effectors; for value of FOXA2 in absence of the factor: 10,000 with all factors; for value of LMX1A in absence of the factor: 30,000 with all factors
Text: To further guide the differentiation of midbrain-committed neural stem cells to neural progenitor cells at stage 2, we performed an additional HD-DoE experiment. We thereby obtained additional gene regulatory models that were used for preparation of differentiation protocol. The basis of this was a 12-factor HD-DoE experiment with focus on initiation of differentiation of cells toward midbrain neural progenitor cells for an additional 3 days after termination of stage 1 treatment. Here, we focused on expression of LMX1A and FOXA2 in neural progenitor cells with low to zero expression of GBX2. LMX1A had significant high expression level in the model with value of 47888. Therefore, we used optimization setting for this gene to identify the positive factors. The factors in this experiment included SC79, MK2206, ZM336372, PD0325901, CHIR99021, A 83-01, TTNPB, AGN193109, GW3965, SR9243, Purmorphamine and GSI-XX.
as §1
In the stage 2 recipe, each of the six finalized factors were removed while the other five factors were present and the expression levels of FOXA2, LMX1A and GBX2 were assessed, compared to the levels in the presence of all factors. According to the first experiment model, the absence of TTNPB lead to a rise of GBX2 expression, while the value of FOXA2 and LMX1A reduced drastically from 10,000 to 0 and 30,000 to 15,000, respectively. The absence of A 83-01 reduced the expression of FOXA2 from 10,000 to 7000, however, as expected, the value of LMX1A increased from 30,000 to 40,000. […] According to the second experiment model, the absence of BMP7 and MK2206 both reduced the level of FOXA2 while increasing the value of LMX1A, with BMP7 as the main effector that led to 0 expression of FOXA2.

[4] = model optimized for maximum expression of FOXA2, positive effect
[5] = model optimized for MSX1, negative regulatory effect
[6] = model optimized for LMX1A, positive impact
[7] = stage 2 recipe, first experiment model
[8] = Purmorphamine added to the original 4 effectors, dynamic profile
[9] = model optimized for maximum expression of FOXA2, positive impact

Row | SMILES | impact on expression of FOXA2 ([1]; dynamic profile) | impact on expression of OTX2 ([1]; dynamic profile) | factor contribution [1, 4] | expression level of LMX1A in absence of the factor [1] | expression level of FOXA2 in absence of the factor [1] | expression level of DMBX1 in absence of the factor [1] | expression level of OTX2 in absence of the factor [1] | factor contribution [2, 5] | impact on expression of FOXA2 [3] | impact on expression of LMX1A [3] | factor contribution [3, 6] | value of FOXA2 in absence of the factor [3, 7] | value of LMX1A in absence of the factor [3, 7] | factor contribution [3, 9] | further results
1 | c1ccc2c(-c3cnn4cc(-c5ccc(N6CCNCC6)cc5)cnc34)ccnc2c1 [LDN193189] | positive impact | positive impact | 13.6 | decreased | decreased | increased | decreased | 19.9 | – | – | – | – | – | – | factor contribution ([1]; model optimized for maximum expression of OTX2, positive impact, 3-day treatment): 11.9; impact on expression level of MSX1 ([2]; dynamic profile, 12 effectors): high negative impact; factor contribution ([2]; model maximizing expression of CORIN, positive regulatory impact): high positive factor contributions
2 | Cc1nn(-c2ccccc2)c(C)c1/C=N/N1CCN(Cc2ccccc2)CC1 [SANT-1] | – | – | – | – | – | – | – | – | – | – | – | – | – | – | factor contribution ([2]; model maximizing expression of CORIN, negative impact): 9.9
3 | O=C(O)Cc1cccc(OCCCN(Cc2cccc(C(F)(F)F)c2Cl)CC(c2ccccc2)c2ccccc2)c1 [GW3965] | – | – | – | – | – | – | – | – | positive impact | positive impact | 5.4 | 17,000 | 10,000 | – | –
4 | c1ccc2c(Oc3nc(Nc4ccc(N5CCOCC5)cc4)c4ncn(C5CCCCC5)c4n3)cccc2c1 [Purmorphamine] | positive impact | did not have a positive impact | 22.2 | beneficial | reduction | beneficial | beneficial | – | positive effect; also recorded: positive impact | – | – | – | – | 15.3 | impact on expression of DMBX1 ([1]; OTX2-optimized setting): did not have a positive impact; impact on expression of LMX1A ([1]; OTX2-optimized setting): did not have a positive impact; expression level of DMBX1 [1, 8]: 3000; expression level of LMX1A [1, 8]: 450; expression level of OTX2 [1, 8]: 11000; factor contribution ([3]; negative effect on LMX1A expression levels): 26.2; expression level of FOXA2 ([3]; without addition of Purmorphamine, dynamic profile): 5000
5 | C/C(=C\c1ccc(C(=O)O)cc1)c1ccc2c(c1)C(C)(C)CCC2(C)C [TTNPB] | – | – | – | – | – | – | – | 15.5 | – | positive impact | 19.5 | 0 | 15,000 | 10.7 | GBX2 expression in absence of the factor [3, 7]: rise; factor contribution ([2]; model optimized for SOX6, negative impact): 9.5
